Data from BindingDB's records for doi:10.1016/j.bmcl.2019.126637 (Eli Lilly, 2019).

Target: Cyclin-Y/Cyclin-dependent kinase 16 (Homo sapiens, UniProt Q00536+Q8ND76)
Experiment: Competitive irreversible inhibition of CDK16/cyclin Y (unknown origin) in presence of Km ATP

Cyclin-Y/Cyclin-dependent kinase 16, sequence (Q00536 whole entry): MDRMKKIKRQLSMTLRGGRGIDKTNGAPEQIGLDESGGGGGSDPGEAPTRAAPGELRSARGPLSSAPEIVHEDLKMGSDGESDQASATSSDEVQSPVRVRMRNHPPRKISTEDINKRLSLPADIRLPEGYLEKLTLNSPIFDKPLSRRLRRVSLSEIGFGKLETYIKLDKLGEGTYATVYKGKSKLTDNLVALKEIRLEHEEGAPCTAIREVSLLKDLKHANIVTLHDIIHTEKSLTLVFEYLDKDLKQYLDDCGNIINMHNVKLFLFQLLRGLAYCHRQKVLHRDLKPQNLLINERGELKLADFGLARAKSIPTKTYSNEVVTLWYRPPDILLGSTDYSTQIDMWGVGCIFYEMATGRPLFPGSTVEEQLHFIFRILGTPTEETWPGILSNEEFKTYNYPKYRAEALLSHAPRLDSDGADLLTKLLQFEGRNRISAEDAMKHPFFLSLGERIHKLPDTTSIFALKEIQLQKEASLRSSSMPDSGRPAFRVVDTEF
Cyclin-Y/Cyclin-dependent kinase 16, sequence (Q8ND76 whole entry): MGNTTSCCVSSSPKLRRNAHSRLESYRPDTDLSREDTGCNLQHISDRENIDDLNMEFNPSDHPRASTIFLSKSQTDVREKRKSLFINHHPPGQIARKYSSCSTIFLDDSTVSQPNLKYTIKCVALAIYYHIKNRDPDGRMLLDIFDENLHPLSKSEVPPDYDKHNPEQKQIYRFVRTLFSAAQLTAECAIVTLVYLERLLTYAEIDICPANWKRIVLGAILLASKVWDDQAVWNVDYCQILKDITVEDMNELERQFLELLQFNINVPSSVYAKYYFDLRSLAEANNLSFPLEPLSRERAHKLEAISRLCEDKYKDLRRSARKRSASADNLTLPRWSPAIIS

## CN(C)C/C=C/C(=O)Nc1cccc(S(=O)(=O)N2CCC(NC(=O)c3n[nH]cc3NC(=O)c3c(Cl)cc(Cl)cc3Cl)CC2)c1
  IC50: 0.01 µM
